Data: patent EP1056700B1, “MEDICINAL USES OF PHENYLALKANOLS AND DERIVATES” (ZingoTX Pty Ltd, priority 1997, dated 1999)
Where “and” joins values, the source holds several entries; their conditions need not be identical. Equal entries are not always repeated.

Experiments:
[1] = test system: Cyclo-oxygenase (COX); test: Cyclo-oxygenase assay in RBL 2H3 cells (PGD2 EIA); format: cell-based, rat; conditions: final concentration of 10 µM
Protocol: Cyclo-oxygenase (COX) assay was performed with cells in culture prepared from rat basophilic leukemia (RBL) 2H3 cell lines. Cells were cultured in EMEM containing 10% fetal calf serum and antibiotic until cells reached confluence. Harvested cells were subsequently seeded on 24-well plates at 1 x 10^6 cells/ml then incubated at 37°C for 3 hours. Cells were washed twice with incubation buffer (1.5 ml) containing 5 mM Hepes, 140 mM NaCl, 5 mM KCl, 0.6 mM MgCl2, 1 mM CaCl2 and […]. Cells were then covered with 0.49 ml of buffer, followed by addition of samples/solvents (0.005 ml) and incubated at 37 °C for 5 min on an orbital shaker. Arachidonic acid (0.005 ml, containing 50% EtOH) was subsequently added, and the plate was incubated at similar conditions for a further 10 min. The supernatant (0.1 ml) was aliquoted for methoxime derivatisation of PGD2, which was carried out by heating the supernatant with methoxime solution (1:1) at 60 °C for 30 min according to the instructions provided with the kit. The resultant solution was diluted with EIA buffer and stored on ice for EIA, following the protocol provided with the kit.
Validation of COX enzyme activity was carried out using EIA in which the enzyme activity was characterised against various concentrations of AA and a time course of enzyme activity.
[…] Indomethacin was used as reference compound. The concentration of DMSO in the assay was maintained at 1.5%.

[2] = test system: Platelet rich plasma; test: Platelet aggregation: [^3H]-serotonin release from platelet rich plasma, arachidonic acid initiated; format: cell-based; conditions: Homo sapiens, activation by EC50 concentration of arachidonic acid
Protocol: Blood was collected from healthy volunteers who had taken no medication in the previous two weeks. The anticoagulant used was 3.8 % trisodium citrate. Platelet rich plasma was prepared and incubated with [^3H]-serotonin. This was followed by addition of gingerol analogues. Platelet activation was initiated using the EC50 concentration for arachidonic acid. The percentage of [^3H]-serotonin release was measured using a liquid scintillation counter. Then, dose-response curves were established and IC50 values were obtained.

[3] = target: T1, Lipoxygenase (LP) (Rattus norvegicus, UniProt P12527); test: Lipoxygenase assay with cell-free enzyme from RBL 2H3 cells (EIA); format: biochemical; conditions: final concentration of 10 µM
T1 construct: cell-free enzyme (Wong et al, 1991) prepared from rat basophilic leukemia (RBL) 2H3 cell lines; endogenous in cells; host or cells: RBL 2H3 (rat basophilic leukemia), 15,000 g supernatant of cells disrupted by nitrogen cavitation
T1 sequence (P12527 1-673): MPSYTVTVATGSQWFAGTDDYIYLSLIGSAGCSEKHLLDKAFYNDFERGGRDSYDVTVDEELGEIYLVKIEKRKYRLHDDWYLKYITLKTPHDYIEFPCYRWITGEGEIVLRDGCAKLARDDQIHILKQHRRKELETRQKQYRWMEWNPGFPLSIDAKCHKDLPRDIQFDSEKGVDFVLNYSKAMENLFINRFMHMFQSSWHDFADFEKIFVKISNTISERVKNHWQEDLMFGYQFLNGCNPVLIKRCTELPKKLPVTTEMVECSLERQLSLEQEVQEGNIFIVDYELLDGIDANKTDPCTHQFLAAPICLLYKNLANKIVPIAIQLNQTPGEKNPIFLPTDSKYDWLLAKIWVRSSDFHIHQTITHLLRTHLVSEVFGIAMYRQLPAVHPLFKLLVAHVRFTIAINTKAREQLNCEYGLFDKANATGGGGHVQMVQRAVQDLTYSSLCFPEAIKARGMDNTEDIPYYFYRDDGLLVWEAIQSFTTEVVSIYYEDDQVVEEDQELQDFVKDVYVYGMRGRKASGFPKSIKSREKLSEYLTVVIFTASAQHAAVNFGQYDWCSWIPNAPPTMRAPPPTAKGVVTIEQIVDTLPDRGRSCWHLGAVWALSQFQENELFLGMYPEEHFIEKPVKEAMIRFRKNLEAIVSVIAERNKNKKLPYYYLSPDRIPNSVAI
Protocol: Lipoxygenase (LP) assay was performed with cell-free enzyme (Wong et al, 1991) prepared from rat basophilic leukemia (RBL) 2H3 cell lines. Cells were cultured in EMEM containing 10% fetal calf serum and antibiotic until cells reached confluence. Harvested cells were resuspended in Hepes (10 mM) buffer, pH 7.4, containing 1 mM EDTA at 1 x 10^7 cells/ml, and disrupted by nitrogen cavitation using a Parr bomb at 750 psi for 15 min. The broken cells were centrifuged at 15,000 g for 30 min. Aliquots (0.1 ml) of the supernatant were preincubated with or without drugs in Hepes buffer (10 mM Hepes, pH 7, 1 mM EDTA and 150 mM NaCl) for 5 min, and the reaction was initiated with the addition of 50 µl of CaCl2 (16 mM), 50 µl of ATP (2 mM), 5 µl of PAF (2.5 mg/ml) and 5 µl of AA (2.5 mM). The reaction mixture ([…]) was incubated at room temperature for a further 8 min, then diluted with EIA buffer at 1/200 and 1/2000 dilutions and stored on ice for EIA following the protocol provided with the kit.
Validation of LP enzyme activity was carried out by a UV spectrophotometric method in which the enzyme activity was characterised against various concentrations of Ca^2+, ATP, PAF and AA with the measurement of the formation of diene conjugated products of LP at 235 nm.
All compounds were dissolved in DMSO and assayed at a final concentration of 10 µM. NDGA was used as reference compound. The concentration of DMSO in the assay was maintained at 1.5%.

[4] = test system: DRG neuronal cells; test: Peak [Ca^2+]i transients in cultured dorsal root ganglion neurons (Fura-2); format: cell-based, rat; conditions: 10 µM applied for 1 min, 2 mM Ca^2+
Protocol: DRG from neonatal (3-5 days old) rat or adult Sprague-Dawley rats were incubated in Hanks CMF saline with 0.05% collagenase and 0.25% trypsin for 25 min at 37° C. Individual cells were obtained by trituration with fire polished Pasteur pipettes of diminishing diameters. Neurones were isolated from the cell suspension in 30% Percoll and then plated on collagen coated coverslips or in 24-well plates, then cultured in neurobasal medium with B27 supplement, 50 ng/ml 2.5 S nerve growth factor, 2 mM 1-glutamine and 100 U/ml penicillin/streptomycin. Cultures were maintained at 37° C with 5% CO2. 30% Percoll increases the percentage of capsaicin-sensitive DRG neurones up to 70%. For peak [Ca^2+]i transients measurements, cells on coverslips were incubated with 5 µM Fura-2 AM for 30 min at 37° C. The coverslips were then mounted on a chamber attached to a fast sample application perfusion system which allows changing solutions in the second range. Recordings were made on the stage of a Nikon Diaphot inverted microscope fitted with a Nikon 40 x Fluo (NA 0.85) DL Ph3 or 40 x Fluo (NA 1.3) oil objective. [Ca^2+]i was calculated from dual excitation wavelength (340/380 nm) fluorescence measurements following an intracellular calibration procedure by the Grynkiewicz equation, using MCID M2/M4 v.3.0 (Imaging Res. Inc.) software. Cells were continuously perfused with a solution consisting of 140 mM NaCl, 2 mM CaCl2, 5 mM KCl, 20 mM HEPES, 10 mM glucose, pH 7.4. To study KCl evoked depolarisation, 50 mM NaCl was replaced by equimolar KCl. Cytoplasmic localisation of Fura-2 was tested with the Mn^2+ quenching technique (Dedov and Roufogalis, 1998). All experiments were performed at room temperature (20-23°C).
Typical changes in [Ca^2+]i upon depolarisation were evoked by 50 mM KCl and by application of 1 µM capsaicin; both were applied for 30 sec. Capsaicin-evoked peak [Ca^2+]i transients are characterised by a fast rise and long-steady state [Ca^2+]i clearance from the cytoplasm. In capsaicin-sensitive cells the half-time of cytoplasmic Ca^2+ clearance was proportional to the amplitudes of peak [Ca^2+]i transients.
To examine the effect of gingerol derivatives, one or several compounds in succession at a concentration of 10 µM were applied for 1 min to the DRG neuronal cells followed by washing out for 4 min with physiological solution. To the capsaicin-sensitive cells, 10 µM capsaicin and 50 mM KCl were applied, respectively, to confirm the viability of the cells. In addition, morphological appearances of the cells were also examined at the end of experiment. […]

[5] = test system: guinea pig atria; test: Organ bath assay on isolated guinea pig atria (rate and force of contraction); conditions: result in words, guinea pig atria
Protocol: Male guinea pigs, 3-4 weeks old, were killed by rapid cervical dislocation without induced anaesthesia. Then, the guinea pigs were dissected to isolate the atria which were immediately mounted vertically in an organ bath containing Krebs-Henseleit solution oxygenated with carbogen.
One gram tension was applied to the atria and the base line continuously adjusted until it was stable for 20 mins. The rate and force of contraction were recorded using Mac Lab equipment.
Test substances in DMSO were assayed to a maximum concentration of 50 µM at a final concentration of 2.5 % of DMSO.

[6] = test system: rat mesenteric artery; test: Vasodilation on rat mesenteric small arteries
Source text: Small arteries (200-300 µm in diameter) isolated from rat mesentery were precontracted with endothelin prior to addition of the test substances and tested for relaxation.

[7] = Brine shrimp toxicity bioassay; format: in vivo; conditions: Artemia salina (brine shrimp), in vivo; 24 hours, 2% DMSO
Source text: The brine shrimp assay procedure determines LC50 values of active compounds. Activities of a broad range of known active compounds are manifested as toxicity to brine shrimp (Artemia salina Leach). There are many applications of the assay including analysis of toxic substances, anaesthetics, morphine-like substances and cocarcinogenicity of phorbol esters.
The method for testing solvent toxicity used was basically that reported by J L McLaughlin in Methods of Plant Biochemistry (1991), vol. 6 (K Hostettman, ed.), Academic Press, London, 1-32. DMSO solutions of the substances to be tested were added directly to the vials containing the brine shrimp. As the concentration of DMSO that we wished to use was higher than the recommended 1% v/v testing of the toxicity of the DMSO was therefore necessary. The concentrations of DMSO tested on the shrimp, along with the results from the assay which was done in duplicate are listed below.
Brine shrimp toxicity was assayed, except for some minor modifications, according to the method of McLaughlin et al as reported in Brine Shrimp: A convenient bioassay for active plant constituents, B N Meyer, N R Ferrigni, J E Putnam, L B Jacobsen, D E Nichols and J L McLaughlin in Planta Medica (1982), 45, 31-34 and Crown gall tumours on potato discs and brine shrimp lethality: Two simple bioassays for higher plant screening and fractionation. J L McLaughlin. Methods of Plant Biochemistry (1991), vol. 6 (K Hostettman, ed.), Academic Press, London, 1-32. Ten shrimp were transferred to each of the vials and the volume adjusted to 4.9 mL. Each dose was performed in triplicate, including the control. In quick succession, the appropriate volume of additional DMSO for each dose, required to achieve a final concentration of 2%, was added before the appropriate volume of test solution. The vials were gently mixed and the time noted. After 24 hours, the number of survivors were counted and % mortality was determined. The test compounds were assayed at concentrations of 100 µM, 25 µM, 5 µM, 1 µM and 0.2 µM (and where appropriate concentrations of 0.04 µM and 0.008 µM).
The brine shrimp were able to survive without food in the vials over the 24 hour period and were therefore not fed.
The dose-response curves were constructed using the Sigmaplot computer program and the LC50 value was calculated from the intersection point of the curve and the 50 % mortality line. The LC50 values were expressed in both µM and µg/mL.

[8] = test system: brine shrimp (Artemia salina Leach); conditions: values determined by Meyer et al. (1982); cited from earlier work

Structure (SMILES) | IC50 [2] | activity at 10 µM [3] | Cyclooxygenase activity % activity [1] | Number of capsaicin-sensitive cells responding [4] | Peak [Ca^2+]i (Average ±SD) [4] | further results
CCCCCCCCCCC(C)(O)CCc1ccc(O)c(OC)c1 (stereo not drawn) [3-methyl-1-(4-hydroxy-3-methoxyphenyl)tridecan-3-ol] | 75.3 ± 3.1 µM | 5% |  |  |  | 
CC(=O)Oc1ccccc1C(=O)O [Aspirin, reference compound] | 23.4 ± 1.7 µM |  |  |  |  | 
COc1cc([C@@H]2c3cc4c(cc3[C@H](O)[C@H]3COC(=O)[C@H]23)OCO4)cc(OC)c1OC [podophyllotoxin, reference compound] |  |  |  |  |  | LC50 at 24 h [7]: 3.8 µM and 1.6 µg/mL; LC50 [8]: 5.8 µM

Continued, in another order:

IC50 [2] | activity at 10 µM [3] | Structure (SMILES) | Cyclooxygenase activity % activity [1] | Number of capsaicin-sensitive cells responding [4] | Peak [Ca^2+]i (Average ±SD) [4] | further results
69.4 ± 2.6 µM | 83% | CCCCCCCCCC(=O)C(O)c1ccc(O)c(OC)c1 (stereo not drawn) [1-hydroxy-1-(4-hydroxy-3-methoxyphenyl)undecan-2-one] | 16% |  |  | 
45.3 ± 1.6 µM | 3% | CCCCCCCCC(C)(O)CCc1ccc(O)c(OC)c1 (stereo not drawn) [3-methyl-1-(4-hydroxy-3-methoxyphenyl)undecan-3-ol] | 15% | 0 out of 4 | 0 nM | 
 | 81% | CCCCCCCCCC(=O)CCc1ccc(O)c(OC)c1 [[8]-paradol, 1-(4-hydroxy-3-methoxyphenyl)dodecan-3-one, reference compound] | 11% | 1 | 200 nM | FORCE OF CONTRACT^n [5]: inactive; HEART RATE [5]: inactive; EC50 ([6]; Rattus norvegicus, relaxation of small arteries (200-300 µm) precontracted with endothelin): 0.05 µM; relaxation of rat mesenteric artery ([6]; result in words): showed potency
